Assays:
Assay type in all cases: cell-based, human
KYSE30 cells = assay: Cell viability of KYSE30 cells with siRNA-reduced homologous recombination activity; conditions: KYSE30 cells with expression of RAD51 suppressed by siRNA, compared with control
Description: (§1) KYSE270 cells and KYSE30 cells (human esophageal squamous cell carcinoma cell line) were purchased from JCRB Cell Bank, National Institutes of Biomedical Innovation, Health and Nutrition (Osaka, Japan). KYSE270 cells and KYSE30 cells were cultured in a medium in which RPMI1640 and Ham's F12 medium (both of which were manufactured by FUJIFILM Wako Pure Chemical Corporation, Osaka, Japan) were mixed in equal amounts and 5% FBS was added at 37°C in the presence of 5% CO2.
(§2) HeLa cell suspension adjusted to 5000 cells/ml was seeded in a 96 well plate at 100 ul/well, and the next day, siRNA was introduced, followed by addition of Olaparib or Nicaraven. One hundred twenty hours after gene introduction and Olaparib addition, HeLa cells were replaced in a medium to which Presto Blue assay (Thermo-Fisher Scientific, Waltham, MA, USA) had been added so as to have a final concentration of 5%, followed by reaction in the presence of 5% CO2 at 37°C for 1 hour, and then fluorescence was measured under conditions of an excitation wavelength of 520 nm and a fluorescence wavelength of 580 to 640 nm using GloMax (registered trademark) Explorer Multimode Microplate Reader (Promega, Madison, WI, USA).
Fig. 7. […]

γ-H2AX [1] = assay: Western blot of γ-H2AX after ionizing radiation; conditions: HeLa cells, drug 30 minutes before 10 Gy of X-ray, collected two hours later
Description: The culture medium for the cells seeded on a 3.5 cm dish was removed, followed by washing with 1x PBS and then direct dissolution in a 1x Sodium dodecyl sulfate (SDS) sample buffer (2% SDS, 1% 2-Mercaptoethanol [2-ME], 50 mM Tris-HCL [pH 6.8], 12% glycerol, 1% Bromophenol blue [BPB]). Thereafter, the solution was subjected to ultrasonic treatment with Vibra cell (Sonics & Materials Inc., CT, USA) and heated at 95°C for 5 minutes to prepare a whole cell extract. For Western blotting, electrophoresis was performed through a 6%, 10% SDS polyacrylamide gel, and […] was done to a PVDF membrane (Millipore Corporation Darmstadt, Germany) for 1.5 h, followed by blocking with 5% skim milk-PBS for 3 to 16 h. After blocking, a primary antibody diluted with a 0.5% BSA/TBS-T or Can get signal solution (TOYOBO, Osaka, Japan) was allowed to react overnight at 4°C. After washing 3 times with PBS-T for 10 minutes, a secondary antibody diluted with 0.5% BSA/TBS-T was allowed to react at room temperature for 1 to 3 hours. […]
The day after HeLa cells were seeded, Nicaraven was added, and 30 minutes later, the cells were irradiated with 10 Gy of X-ray. […] Cell extracts were adjusted and analyzed with Western Blot. […]

[2] = test system: homologous recombination activity; assay: Assay for site-specific homologous recombination activity (ASHRA); conditions: HeLa cells, siRNA of control, BRCA1 or RAD51; 48 hours of culture with drug
Description: HeLa cells were seeded on a 3.5 cm dish, and the next day, siRNA was introduced. After 24 hours of culture from the introduction of siRNA, LentiCRISPRv2-ACTB-C1 and pBS-ACTB-200 GFPfr1 (vector for ASHRA measurement) were introduced, and Nicaraven was added at the same time. After further culturing for 48 hours, genomic DNA was purified using Blood Genomic DNA Extraction Mini Kit (Favorgen, Ping-tung, Taiwan). Genome quantitative PCR was performed using Go Taq qPCR master mix (Promega, Madison, WI, USA), measurement was done using CFX96 Touch Real-time PCR detection system (BioRad, Hercules, CA, USA), and knock-in efficiency was calculated by ΔΔCt method. Sequences of a primer for detecting a knock-in allele and a primer for detecting a reference allele are shown below. • For knock-in allyl detection • Forward […] • Reverse […] • For reference allyl detection • Forward […] • Reverse […] • Reference paper: NPL 2.
After 24 hours, a vector for measurement of homologous recombination activity was introduced, and Nicaraven was added. After 48 hours of culture, DNA was collected and homologous recombination activity was measured.
The homologous recombination ability was analyzed by Assay for site-specific homologous recombination activity (ASHRA) (Yoshino et al. Scientific Reports 2019, method shown in Fig. 5).

γ-H2AX [3] = assay: γ-H2AX intranuclear foci immunostaining after ionizing radiation (DNA repair process); conditions: drug 30 minutes before 1.5 Gy of X-ray, 24 hours after irradiation
Description: After cell seeding, Nicaraven was added. After 30 minutes, the cells were irradiated with 1.5 Gy of X-ray, and after 2 hours and 24 hours, the cells were fixed and immunostained with an anti-γ-H2AX antibody.
Cells in which five or more γ-H2AX intranuclear foci were observed were counted, and the ratio was calculated and represented in a graph. Respective cells in which less than 5, 5 or more and less than 10, 10 or more and less than 20, and 20 or more γ-H2AX intranuclear foci were observed were counted, and the ratio was calculated and represented in a graph (Fig. 3D).
After IR, more γ-H2AX intranuclear foci are observed in multiple cells in 2 hours. After 24 hours, DNA double strand break is repaired, reducing the number of cells having intranuclear foci and the number of intranuclear foci per cell. Suppression of expression of RAD51 suppressed DNA damage repair. […] It is considered that more DNA damage was formed due to PARP inhibitory action. The measurement of nuclear focus of γ-H2AX 24 hours after X-ray irradiation in this example is a result in a cell having a fast cell cycle.

HeLa cells = assay: Drug sensitivity test: cell viability (Presto Blue) of HeLa cells with siRNA-reduced homologous recombination activity; conditions: 96 hours of culture
Description: as §2
After 96 hours of culture, cell viability was measured.
Figs. 1B and 1C show the measurement results of cell viability.

KYSE270 cells = assay: Cell viability of KYSE270 cells with siRNA-reduced homologous recombination activity; conditions: KYSE270 cells with expression of RAD51 suppressed by siRNA, compared with control; 5 days of culture
Description: as §1, §2
Fig. 6A. […] After 5 days of culture, cell viability was measured. […]

[4] = HeLa cells with expression of BRCA1 and RAD51 suppressed by siRNA, compared with control siRNA

Row | Compound | cell viability (KYSE30 cells) | amount of γ-H2AX (γ-H2AX [1]) | homologous recombination activity [2] | γ-H2AX intranuclear foci (DNA damage remaining) (γ-H2AX [3]; HeLa cells with expression of RAD51 suppressed, compared with control) | γ-H2AX intranuclear foci (DNA damage remaining) (γ-H2AX [3]; HeLa cells, control and RAD51 siRNA) | cell viability (HeLa cells; [4]) | cell viability (HeLa cells; HeLa cells, drug added 24 hours after siRNA) | cell viability (KYSE270 cells)
1 | CC(CNC(=O)c1cccnc1)NC(=O)c1cccnc1 (stereo not shown) [Nicaraven] | cell viability decreased | reduced | did not affect the homologous recombination ability | DNA damage remained more remarkably | caused DNA damage to remain | cell viability further decreased | decreased cell viability in a concentration-dependent manner | cell viability further decreased
2 | O=C(c1cc(Cc2n[nH]c(=O)c3ccccc23)ccc1F)N1CCN(C(=O)C2CC2)CC1 [Olaparib] | – | – | – | – | – | decreased cell viability | – | decreased cell viability

Reference: EP4563148A1, “MEDICINE FOR TREATING CANCER” (Science Technology Interact Co., Ltd., priority 2022, dated 2024)
